Measured values from EP0449649A2, “Antineoplastic quinones and methods of using same” (priority 1990, dated 1991).
Converted amounts (≈) assume the structure as drawn. Like-named read-outs stand apart in the source and are kept apart here.

Legend:
[1] = test system: 110-fold doxorubicin-resistant ovarian cancer (2780/DOX); assay: in vitro screen against doxorubicin-resistant ovarian cancer; type: cell-based; conditions: read-out: IC₅₀
Description: (§1) (see: Salmon, S.E. et al, Cancer Treat Rep., 1981, 65, 102; Salmon, S.E. et al, N. Engl. J. Med., 1978, 298, 1231;and Albert, DS, Cancer Chemother Pharmacol, 1981, 6, 253). The protocol employed for MTT assays are reported. (see: Mossman T.J. Immunol Methods, 1983, 65, 55).
(§2) 6-(N-Aziridinyl)-7-methyl-2, 3-dihydro - 1H- pyrrolo [1, 2-a] benzimidazole-5, 8-dione-3-acetate (1c) was screened for in vitro activity against doxorubicin-sensitive ovarian cancer (2780/S) and 110-fold doxorubicin-resistant ovarian cancer (2780/DOX).
(§3) 6-(N-Aziridinyl)-7-methyl-2, 3-dihydro - 1H- pyrrolo [1, 2-ª] benzimidazole-5, 8-dione-3-carbamate (1d) was screened for in vitro activity against doxorubicin-sensitive (2780/S) and doxorubicin-resistant (2780/DOX) ovarian cancer.

[2] = test system: doxorubicin-sensitive ovarian cancer (2780/S); assay: in vitro screen against doxorubicin-sensitive ovarian cancer; type: cell-based; conditions: read-out: IC₅₀
Description: as §1, §2, §3

[3] = test system: cisplatin-sensitive (2008/S) ovarian cancers; assay: in vitro screen against cisplatin-sensitive ovarian cancer; type: cell-based; conditions: for IC₅₀: in vitro
Description: as §1
(§4) 6-(N-Aziridinyl)-7-methyl-2, 3-dihydro - 1H- pyrrolo [1, 2-ª] benzimidazole-5, 8-dione-3-acetate (1c) was screened for in vitro activities against cisplatin-sensitive (2008/S) and cisplatin-resistant (2008/R) ovarian cancers.
(§5) 6-(N-Aziridinyl)-7-methyl-2, 3-dihydro - 1H- pyrrolo [1, 2-a] benzimidazole-5, 8-dione-3-carbamate (1d) was screened for in vitro activity against cisplatin-sensitive (2008/S) and cisplatin-resistant (2008/R) ovarian cancers.

[4] = test system: cisplatin-resistant (2008/R) ovarian cancers; assay: in vitro screen against cisplatin-resistant ovarian cancer; type: cell-based; conditions: for IC₅₀: in vitro
Description: as §1, §4, §5

[5] = test system: WiDr human colon cancer; assay: in vitro screen against WiDr colon cancer; type: cell-based; conditions: read-out: IC₅₀
Description: as §1
6-(N-Aziridinyl)-7-methyl-2, 3-dihydro - 1H- pyrrolo [1, 2-ª] benzimidazole-5, 8-dione-3-acetate (1c) was screened for in vitro activity against WiDr human colon cancer.
6-(N-Aziridinyl)-7-methyl-2, 3-dihydro - 1H- pyrrolo [1, 2-ª] benzimidazole-5, 8-dione-3-carbamate (1d) was screened for in vitro activity against WiDr/S human colon cancer.

[6] = test system: SW480 human colon cancer; assay: in vitro screen against SW480 colon cancer; type: cell-based
Description: as §1
6-(N-Aziridinyl)-7-methyl-2, 3-dihydro - 1H- pyrrolo [1, 2-ª] benzimidazole-5, 8-dione-3-acetate (1c) was screened for in vitro activity against SW480 human colon cancer.
6-(N-Aziridinyl)-7-methyl-2, 3-dihydro - 1H- pyrrolo [1, 2-ª] benzimidazole-5, 8-dione-3-carbamate (1d) was screened for in vitro activity against SW480 human colon cancer.

[7] = test system: 8226/S human myeloma; assay: in vitro screen against 8226/S myeloma; type: cell-based; conditions: read-out: IC₅₀
Description: as §1
6-(N-Aziridinyl)-7-methyl-2, 3-dihydro - 1H- pyrrolo [1, 2-ª] benzimidazole-5, 8-dione-3-acetate (1c) was screened for in vitro activity against 8226/S human myeloma.
6-(N-Aziridinyl)-7-methyl-2, 3-dihydro - 1H- pyrrolo [1, 2-ª] benzimidazole-5, 8-dione-3-carbamate (1d) was screened for in vitro activity against 8226/S myeloma.

[8] = test system: Fresh ovarian tumors; assay: clonogenic assay on fresh ovarian tumors from patients; type: cell-based, human
Description: as §1
Fresh ovarian tumors were collected from twelve (12) confirmed ovarian cancer patients. Azimitosene 1c was tested in vitro using the clonogenic assay described by Salmon et al, Salmon et al, and Albert et al (op cit). The IC₅₀ data (the drug concentration required to obtain 50% inhibition of tumor colony formation after 1 hour exposure to test compound) obtained from these assays are shown in Table 1.

CO[C@@]12[C@H](COC(N)=O)C3=C(C(=O)C(C)=C(N)C3=O)N1C[C@@H]1N[C@@H]12 [MMC, mitomycin C, reference compound]
IC50 ([1]; 2780/DOX, in vitro): 200 nM
IC50 ([2]; 2780/S, in vitro): 100 nM
IC₅₀ [3]: not attainable
IC₅₀ [4]: not attainable
IC50 ([5]; WiDr (WiDr/S), in vitro): 20 nM
IC50 ([6]; SW480, in vitro, read-out: IC₅₀): 7 nM
IC50 ([7]; 8226/S, in vitro): 200 nM

CC(=O)OC1CCn2c1nc1c2C(=O)C(C)=C(N2CC2)C1=O (stereo not drawn) [1c, 6-(N-aziridinyl)-7-methyl-2,3-dihydro-1H-pyrrolo [1,2-a]benzimidazole-5,8-dione-3-Acetate]
IC50 [1]: 16 nM
IC50 [2]: 0.6 nM
IC50 ([3]; Homo sapiens, read-out: IC₅₀): 7 nM
IC50 ([4]; Homo sapiens, read-out: IC₅₀): 7 nM
IC50 ([5]; WiDr): 6 nM
IC50 ([6]; SW480, read-out: IC₅₀): 9 nM
IC50 [7]: 100 nM
IC50 ([8]; 50% inhibition of tumor colony formation after 1 hour exposure, each value is the tumor of one patient (Patient No. 1-12)): unachievable
IC50 ([8]; Homo sapiens, median over the fresh ovarian tumors of Table 1, read-out: median IC₅₀): 0.05 µg/mL (≈ 0.166 µM)
ovarian cancers that respond ([8]; share of the 12 fresh ovarian tumors of Table 1): 91%

CC1=C(N2CC2)C(=O)c2nc3n(c2C1=O)CCC3OC(N)=O (stereo not drawn) [1d, 6-N-Aziridinyl-7-methyl-2,3-dihydro-1H-pyrrolo [1,2-a]benzimidazole-5,8-dione-3-Carbamate]
IC50 [1]: 200 nM
IC50 [2]: 100 nM
IC₅₀ [3]: not attainable
IC₅₀ [4]: not attainable
IC50 ([5]; WiDr): 100 nM
IC50 ([6]; SW480, read-out: IC₅₀): 19 nM
IC50 [7]: 140 nM
